Laboratory results taken from patent US20260109727A1, “RNA CONSTRUCTS AND USES THEREOF” (BioNTech SE, priority 2022, published 2026).

Key:
[1] = tested on: human PBMCs; assay: Cytokine/chemokine secretion in human PBMCs (MSD V-PLEX); assay type: cell-based; conditions: for proinflammatory cytokine/chemokine responses compared to m1Ψ-modified mRNA: lipid-complexed U-containing mRNA, even at lowest dose 0.5 μg/ml
Method: Human buffy coats from healthy individuals were obtained from the Faculty of Medicine of Johannes Gutenberg University, Mainz and used to isolate peripheral blood mononuclear cells (PBMCs) on a Ficoll-Paque™ PLUS (Cytiva, Marlborough, MA, USA) density gradient. In preparation for mRNA transfection, cryopreserved PBMCs were thawed and seeded into 96-well plates at a density of 5×10^5 cells per well in 190 μL RPMI medium supplemented with 1% non-essential amino acids (NEAA), 1% sodium pyruvate and 10% Fetal Bovine Serum (Merck, Germany). Cells were maintained at 37° C. with 5% CO2 until transfection with 0.5, 1.5, 5.0 and 15 μg/ml lipoplex-formulated EPO mRNA (LPX-RNA), as described in Kranz, L. M., et al. (2016) Nature, 534, 396-401. The complexed RNA (10 μl per well) was added in triplicates and supernatants were collected at 24 h after transfection to perform single cell cytotoxicity assay and to measure the cytokine/chemokine profile. To determine the cell viability and the production of selected cytokines/chemokines, supernatants from human PBMCs transfected with LPX-RNA were subjected to XTT cytotoxicity test using Cell Proliferation Kit II (Sigma-Aldrich) and cytokine/chemokine profile analysis using the Meso Scale Discovery V-PLEX Custom Human Biomarkers Proinflammatory and Chemokine Panel (Meso Scale Diagnostics—MSD, Rockville, MD, USA) according to the manufacturer's instructions, respectively. In regards of cytokine/chemokine profile analysis, a sample dilution of 1:5 (supernatant:MSD diluent) was used in each experiment. The levels of IL-6 (Interleukin 6), TNF-α (Tumor necrosis factor alpha), IL-1 (Interleukin 1 beta), IFN-γ (Interferon gamma), MCP-1 (Monocyte Chemoattractant Protein-1), […] (Macrophage inflammatory protein 1 beta) and IL-10 (Interleukin 10) were quantified 24 h after the mRNA transfection. […] This low immunogenicity can be directly attributed to the nucleoside modifications incorporated into the mRNA. To illustrate this, cells treated with lipid-complexed U-containing mRNA capped with compound I′-1, CC114 and CC413 induced much higher proinflammatory cytokine/chemokine responses even at their lowest dose (0.5 μg/ml) when compared to m1Ψ-modified mRNA (FIG. 6).
To test the effect of the cap types and mRNA 5′end on immunogenicity in human peripheral blood monocyte cells (PBMCs) we compared changes in levels of cytokines and chemokines after application of Lipoplex (LPX)-formulated EPO mRNAs. First, we compared the impact of m1Ψ-mRNA capped with I′-6 containing a UAGU 5′end vs. CC413 (AGAAU 5′end) (FIG. 12). […] Second, we compared capped EPO uRNA with I′-6 or I′-1 (FIG. 14). In this case both mRNAs had the same TAGT 5′end. […] Thus, benefit of I′-6 in decreasing the immunogenicity and thus increasing safety was found when I′-6 was used.

[2] = tested on: BALB/c mice; assay: Hematocrit in mice IV injected with 3 μg TransIT-complexed EPO mRNA; assay type: in vivo; conditions: D14 after injection
Method: (§1) To confirm in vitro data, female BALB/c mice from Jackson Laboratory (Bar Harbor, ME, USA) at the age of eight to ten weeks were used for in vivo experiment in accordance with federal policies on animal research (Ethics approval number: G18-12-027). Mice (n=3/group) were injected intravenously (i.v.) with 3 μg TransIT-complexed (Mirus Bio) EPO mRNAs in a final volume of 200 μL Dulbecco's modified Eagle medium (DMEM). Mice used as controls were injected with TransIT-reagent diluted in DMEM but without RNA. Mice were injected with EPO mRNA complexed with TransIT-reagent and EPO levels in plasma were measured using ELISA (FIG. 8A). Hematocrit was measured from 18 μl of blood that was collected at the indicated times using centrifugation in Drummond microcaps glass capillary tubes (20 μl volume, Merck, Germany) as described (20) (FIG. 8B). After determination of the hematocrit, capillary tubes were snapped open, and the plasma was collected to measure EPO levels and analyzed for mouse Erythropoietin DuoSet ELISA kit (R&D Systems) according to the manufacturer's instructions. […] EPO RNA containing m1Ψ translated two-fold more than U-containing mRNA at each time points (FIG. 8A). Both compound I′-1 and compound I′-6 are suitable for translation of the encoded protein and each cap analog can be used for synthesizing of non-replicating functional mRNAs (FIG. 8A, 8B).
(§2) In each in vivo experiment in order to measure the translational efficiency and to determine the functionality of EPO mRNA capped with I′-1, I′-2, I′-3, I′-5, I′-6, I′-9, I′-12, I′-13, I′-16, CC114, and CC413 in vivo, female BALB/c mice from Jackson Laboratory (Bar Harbor, ME, USA) at the age of eight to ten weeks were used for in accordance with federal policies on animal research (Ethics approval number: G19-12-074). In each case, mice (n=3/group) were injected intravenously (i.v.) with 3 μg TransIT-complexed (Mirus Bio) EPO mRNAs in a final volume of 200 μL Dulbecco's modified Eagle medium (DMEM). Mice used as controls were injected with TransIT-reagent diluted in DMEM but without RNA. To measure hematocrits and EPO levels in the individual mice that were injected with EPO mRNA capped with I′-6, I′-1, CC114, and CC413 and complexed with TransIT-reagent, 18 μL of blood was collected at the indicated times (FIG. 8B) and centrifuged in Drummond microcaps glass capillary tubes (20 μl volume, Merck, Germany) as described (19). After determination of the hematocrit, capillary tubes were snapped open, and the plasma was collected to measure EPO levels and analyzed for mouse Erythropoietin DuoSet ELISA kit (R&D Systems) according to the manufacturer's instructions. […] EPO RNA containing m1Ψ modifications translated 2-3-fold, 5-fold, and 10-fold more than U-containing mRNAs at 6-24, 48 and 72 hours after injections, respectively. (FIG. 8A). […] To address translation of I′-6-capped mRNA in human primary hepatocytes, EPO level was measured from supernatants transfected using 0.1 μg/well TransIT-formulated I′-6- or CC114-capped uRNA (FIG. 13).

[3] = tested on: BALB/c mice; assay: Plasma EPO in mice IV injected with 3 μg TransIT-complexed EPO mRNA (ELISA); assay type: in vivo
Method: as §1, §2
To this end, we generated U-containing as well as m1Ψ-modified EPO RNA capped with cap analogs which belong to either the non-ARCA (I′-13) or ARCA (I′-6) classes. Moreover, the latter ones contain 2′-OMe (I′-5) or 3′-OMe (I′-6) at the ribose of the m7G moiety. Three μg of TransIT-complexed EPO mRNA capped with nucleoside modification-containing NeoCaps I′-13, I′-5 and I′-6 cap analogs were injected into mice intravenously. After that EPO level of plasma collected from mice was measured at 6, 24 and 48 hours after administration to compare the translational activity of mRNA capped with NeoCaps with U-containing or m1Ψ-modified mRNA capped with non-modified ARCA 3′OMe I′-1.
Plasma EPO level of mice injected with 3 μg of each TransIT-complexed mRNA was determined using murine EPO-specific ELISA at 6, 24, 48 and 72 hours after intravenous administration. […]

[4] = tested on: human primary hepatocytes; assay: EPO secretion in human primary hepatocytes transfected with TransIT-EPO mRNA (ELISA); assay type: cell-based
Method: To measure the translational efficiency of EPO mRNA capped with compound I′-1, compound I′-6, CC114, and CC413 in vitro, human primary hepatocytes were seeded into 96-well plates at a density of 2.5×10^4 cells per well and were transfected with mRNA samples (0.1 μg) complexed with TransIT reagent (Mirus Bio, Madison, WI, USA) in a final volume of 200 μL in InVitroGRO CP Medium (Sigma-Aldrich) supplemented with Thorpedo Antibiotic Mix (Sigma-Aldrich). To quantify EPO levels, the supernatant was collected at 1, 2, 3, 4, 5 and 6 day after transfection and EPO levels were analyzed by mouse Erythropoietin DuoSet ELISA kit (R&D Systems, Minneapolis, MN, USA) according to the manufacturer's instructions.
as §2
To test if various uridine (U) or pseudouridine (Ψ) derivatives of cap analogues can improve translation in human primary hepatocytes, we first measured EPO secretion after application of EPO-encoding Ψ-mRNA capped with compounds described herein analog bearing pseudouridine (I′-3) or CC413 (no modification). […] In addition, all tested modification bearing caps led to increase in EPO secretion at 24 h and 48 h when compared to the unmodified I′-1 (FIG. 16).

[5] = tested on: human PBMCs; assay: XTT cytotoxicity test of PBMCs transfected with LPX-formulated EPO mRNA; assay type: cell-based; conditions: 24 h, up to 1 μg/well mRNA
Method: Human buffy coats from healthy individuals were obtained from the Faculty of Medicine of Johannes Gutenberg University, Mainz and used to isolate peripheral blood mononuclear cells (PBMCs) on a Ficoll-Paque™ PLUS (Cytiva, Marlborough, MA, USA) density gradient. In preparation for mRNA transfection, cryopreserved PBMCs were thawed and seeded into 96-well plates at a density of 5×10^5 cells per well in 190 μL RPMI medium supplemented with 1% non-essential amino acids (NEAA), 1% sodium pyruvate and 10% Fetal Bovine Serum (Merck, Germany). Cells were maintained at 37° C. with 5% CO2 until transfection with 0.5, 1.5, 5.0 and 15 μg/ml lipoplex-formulated EPO mRNA (LPX-RNA), as described in Kranz, L. M., et al. (2016) Nature, 534, 396-401. The complexed RNA (10 μl per well) was added in triplicates and supernatants were collected at 24 h after transfection to perform single cell cytotoxicity assay and to measure the cytokine/chemokine profile. […] The levels of IL-6 (Interleukin 6), TNF-α (Tumor necrosis factor alpha), IL-1 (Interleukin 1 beta), IFN-γ (Interferon gamma), MCP-1 (Monocyte Chemoattractant Protein-1), […] (Macrophage inflammatory protein 1 beta) and IL-10 (Interleukin 10) were quantified 24 h after the mRNA transfection. […]

In the case of “(m^7)Gppp(m^2′-O)ApU [CC114, reference compound]”, the “proinflammatory cytokine/chemokine responses compared to m1Ψ-modified mRNA” value [1] is reported as “much higher” and the “decrease of hematocrit values from D14” value [2] is reported as “started to decrease at D14”.

With `COC1C(OP(=O)(O)OC[C@H]2O[C@@H](c3cn(C)c(=O)[nH]c3=O)C(O)C2O)[C@@H](COP(=O)(O)OP(=O)([O-])OP(=O)(O)OC[C@H]2O[C@@H](n3c[n+](C)c4c(O)nc(N)nc43)C(O)C2O)O[C@H]1n1cnc2c(N)ncnc21` (stereo partly drawn) [I′-13, m^7GpppA(2′-OMe)pm^1Ψ] the “translation of m1Ψ-mRNA capped with I′-13 relative to U-mRNA capped with CC114” value ([3]; 6 h after injection) was 8 fold, the “translation of m1Ψ-mRNA capped with I′-13 relative to U-mRNA capped with CC114” value ([3]; 24 h after injection) was 25 fold and the “translation compared to mRNA capped with non-modified ARCA cap” value ([3]; each tested time point (6, 24, 48 h), regardless of the mRNA modification) was “at least two-fold better”.

With “(m2^7,3′-O)Gppp(m^2′-O)ApG [CC413, reference compound]” the “proinflammatory cytokine/chemokine responses compared to m1Ψ-modified mRNA” value [1] was “much higher”, the “decrease of hematocrit values from D14” value [2] was “started to decrease at D14” and the “translational efficiency and biological activity (murine EPO, hematocrit %) of EPO mRNA” value ([3]; FIG. 1, CC413 vs CC113) was “significantly better than CC113”.

For `COC1C(OP(=O)(O)OC[C@H]2O[C@@H](c3c[nH]c(=O)[nH]c3=O)C(O)C2O)[C@@H](COP(=O)(O)OP(=O)([O-])OP(=O)(O)OC[C@H]2O[C@@H](n3c[n+](C)c4c(O)nc(N)nc43)C(O)C2OC)O[C@H]1n1cnc2c(N)ncnc21` (stereo partly drawn) [I′-3, m^7G(^3′-OMe)pppA(2′-OMe)pΨ], the “level of EPO compared to CC413” value ([4]; EPO-encoding Ψ-mRNA, 24 h and 48 h) was “higher” and the “EPO level compared to I′-6” value ([3]; m1Ψ-modified mRNA, 48 and 72 hours after injection) was “equal or slightly less”.

For `COC1C(OP(=O)([O-])OC[C@H]2O[C@@H](n3ccc(=O)[nH]c3=O)C(O)C2O)[C@@H](COP(=O)(O)OP(=O)(O)OP(=O)(O)OC[C@H]2O[C@@H](n3c[n+](C)c4c(O)nc(N)nc43)C(O)C2OC)O[C@H]1n1cnc2c(N)ncnc21` (stereo partly drawn) [I′-1, m^7G(^3′-OMe)pppA(2′-OMe)pU], the “proinflammatory cytokine/chemokine responses compared to m1Ψ-modified mRNA” value [1] was “much higher”, the “cytokines/chemokines, compared with CC413” value ([1]; unmodified mRNA, 24 h) was “significantly higher” and the “toxic effect on cell viability (XTT)” value [5] was “no toxic effect”. The “translation (EPO secretion) compared to CC413” value ([4]; 0.1 μg/well TransIT-EPO mRNA, 24 hrs) was “higher translation”, the “translation compared to CC413” value ([4]; unmodified RNA, each time point after transfection (day 1-6)) was “higher translation” and the “decrease of hematocrit values from D14” value [2] was “not observed”. For the same compound, the “translational capacity compared with m1Ψ in cap (I′-6) and mRNA” value ([3]; U-containing mRNA, each time point) was “significantly lower” and the “translation of ARCA analogs compared to non-ARCA caps CC114 and I′-13” value ([3]; regardless of the RNA modification) was “significantly better”.
